Test system: Aspergillus flavus
Assay type: cell-based

SMILES	aflatoxin production inhibiting activity	aflatoxin production inhibiting activity relative to the natural product cyclo (L-Ala-Gly) (based on the IC50 (concentration that reduces the amount of aflatoxin B1 to 1/2), 25°C, 4 days)
C[C@H]1NC(=O)CNC1=O [cyclo (D-Ala-Gly)]	did not exhibit sufficient aflatoxin production inhibiting activity	
O=C1CNC(=O)CN1 [cyclo (Gly-Gly)]	did not exhibit sufficient aflatoxin production inhibiting activity	
CC[C@@H]1NC(=O)CNC1=O [cyclo (L-Abu(2)-Gly)]	extremely excellent aflatoxin production inhibiting activity	75 fold
